Where “and” joins values, the source holds several entries; their conditions need not be identical. Equal values may be shown once. Marks after values point to notes of the source that are not given here.
Tests used:
Format in all cases: biochemical
[1] = Effect of incubation pH on purified AK activity (luciferin/luciferase)
Protocol: (§1) Experimental work used adenylate kinase-generated ATP to drive a luciferin/luciferase activity, giving results in RLUs as a quantitative measure of initial ATP levels. All AK assays were performed at pH 7.5, and 37° C. Results of the assay were read at ambient temperature.
To assess the effect of pH on AK activity, purified enzyme was incubated for 1 hour at various pH, with pH 7.5 being the control (normal assay conditions). AK activity was measured by using the bioluminescent luciferin/luciferase to detect AK-generated ATP.

[2] = AK activity after transient pH drop or acidic incubation at pH 4; details: for AK activity relative to control: listed as AK alone
Protocol: as §1
In further experiments, three treatment conditions were tested: (i) a control, run at pH 7.5 with no pH change; (ii) a transient pH drop before the assay, where pH was reduced to pH 4 and then returned to pH 7.5; and (iii) an acidic incubation, where pH was reduced to pH 4 for 15 minutes. AK activity was then assessed. In parallel tests, the effect of these pH conditions on the viability of E. coli and E. faecalis was assessed.

[3] = system: bacterial adenylate kinase; assay: AK reduction by different proteases over time for different organisms; details: 37° C., 10 to 120 minutes; trypsin 1000, papain 10, proteinase K 2.5, chymotrypsin 1 U/ml
Protocol: • 1. Bacteria were scraped from plates and inoculated in approximately 20 ml of broth only. These were incubated overnight at 37° C. • 2. 10× stocks of the enzymes were prepared in broth only: • a. 10 mg of 16,000 U/mg Trypsin added to 16 ml of broth to give 10,000 U/ml (10×) stock. • b. 25 mg of 4 U/mg Papain added to 1 ml of broth to give 100 U/ml (10×) stock. • c. 10 mg of 7.5 U/mg proteinase K added to 3 ml of broth to give a 25 U/ml (10×) stock. • d. 10.5 ul of 239 U/ml chymotrypsin added to 239.5 ul of broth to give a 10 U/ml stock. • 3. The inoculums were then centrifuged at approximately 14030 RCF for one hour. • 4. The supernatant was then taken, tested for adenylate kinase activity (described below), and diluted with broth only if needed to give about 10^5 cpm/ml. • 5. The supernatant was then assayed for adenylate kinase activity at time point zero in triplicate and averaged. • 6. 1.5 ml solutions of the supernatants were prepared with the correct concentration of enzyme, or broth for control. These were incubated at 37° C. • 7. Samples were then taken and assayed in triplicate for adenylate kinase activity at 10, 30, 60 and 120 minutes. • 8. The triplicates were averaged, and normalised by dividing by the time point zero average. Adenylate Kinase Assay (AK Only No Cells) • 1. […] added to a cuvette. • 2. […] RLU read immediately. […]

## adenylate kinase [AK]
[1]; incubated 1 hour at pH 3
  AK activity, RLU: 15.7 RLU (10^3)
[1]; incubated 1 hour at pH 4
  AK activity, RLU: 11.1 RLU (10^3)
[1]; incubated 1 hour at pH 5
  AK activity, RLU: 299.0 RLU (10^3)
[1]; incubated 1 hour at pH 6
  AK activity, RLU: 333.5 RLU (10^3)
[1]; incubated 1 hour at pH 7.5 (control, normal assay conditions)
  AK activity, RLU: 288.2 RLU (10^3)
[1]; incubated 1 hour at pH 9
  AK activity, RLU: 262.4 RLU (10^3)
[1]; incubated 1 hour at pH 10
  AK activity, RLU: 214.5 RLU (10^3)
[1]; incubated 1 hour at pH 11
  AK activity, RLU: 201.2 RLU (10^3)
[1]; incubated 1 hour at pH 12
  AK activity, RLU: 88.6 RLU (10^3)
[2]; acidic incubation: pH 4 for 15 minutes
  AK activity relative to control: 13% and 8%
[2]; incubation at pH 4
  reduction in AK activity: ~10 fold
[2]; transient pH drop: reduced to pH 4 and returned to pH 7.5
  AK activity relative to control: 91% and 89%

## chymotrypsin
[3]
  degradation of AK extracted from different organisms: degraded the AK in a similar manner to trypsin
